Measurements published in patent US20020064790A1, “Design of drugs involving receptor-ligand-DNA interactions” (priority 1993, published 2002).
Entries after “also recorded” stand apart in the source; their conditions may differ. Structures can show the parent of a compound that is named as a salt. Where two headings read alike, the source gives them in different places.

Key:
[1] = system: various animal and human tumor cells; assay: Growth inhibition in various animal and human tumor cells; format: cell-based
Description: (§1) These synthetic derivatives were assessed for biological potency by measuring their growth inhibitory effects on various cell lines using concentrations of […] based on the reported IC50 of 3-phenylacetylamino-2,6 piperidinedione in Nb2 cells.
3-Phenylacetylamino-2,6-piperidinedione (A10) is a modified amino-acid derivative, which was originally isolated from freeze-dried human urine. […] The focus of the following study was to develop more- potent analogs. […] It was observed that placing a hydroxyl group at the para position of the phenyl group of A10 would enable a second hydrogen bond to form thereby substantially enhancing fit as reported by Hendry et al., J. Steroid Biochem. Molec. Biol. 48:495-505 (1994), the teachings of which are hereby incorporated by reference in their entirety.

rat Nb2 lymphoma cells = assay: Inhibition of prolactin stimulated growth of Nb2 lymphoma cells; format: cell-based
[2] = system: MCF-7 (E-3) human breast cancer cells; assay: Inhibition of estrogen stimulated growth of MCF-7 (E-3) cells, 9 day model; format: cell-based; details: for inhibition of estrogen stimulated cell growth: MCF-7 (E-3) cells; for IC50: MCF-7 (E-3), estrogen stimulated growth, 9 day model
YAK lymphoma cells = assay: Growth inhibition in YAK lymphoma cells; format: cell-based; details: rank among derivatives
Description: as §1

estrogen receptor [3] = biological target: T1, estrogen receptor (Homo sapiens, UniProt P03372); assay: Estrogen receptor binding
T1 sequence (P03372 1-595): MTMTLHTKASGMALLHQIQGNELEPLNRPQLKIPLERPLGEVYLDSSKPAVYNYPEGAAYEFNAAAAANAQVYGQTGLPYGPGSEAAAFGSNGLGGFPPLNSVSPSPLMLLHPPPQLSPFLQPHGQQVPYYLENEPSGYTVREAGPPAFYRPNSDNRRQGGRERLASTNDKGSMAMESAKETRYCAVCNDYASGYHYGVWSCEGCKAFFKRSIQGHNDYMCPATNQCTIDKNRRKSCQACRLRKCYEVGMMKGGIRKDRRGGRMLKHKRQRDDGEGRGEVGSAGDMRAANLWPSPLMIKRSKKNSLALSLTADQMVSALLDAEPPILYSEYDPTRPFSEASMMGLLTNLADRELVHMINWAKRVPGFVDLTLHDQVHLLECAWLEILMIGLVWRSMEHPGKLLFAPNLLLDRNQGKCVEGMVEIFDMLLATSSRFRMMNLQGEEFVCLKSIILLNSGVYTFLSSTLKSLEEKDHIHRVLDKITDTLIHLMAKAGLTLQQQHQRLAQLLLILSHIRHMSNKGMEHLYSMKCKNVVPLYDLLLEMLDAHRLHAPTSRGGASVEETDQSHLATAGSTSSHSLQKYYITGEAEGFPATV

[4] = system: human leukemia (K652) cells; assay: Growth inhibition in human leukemia K562 cells; format: cell-based
[5] = system: uterotropic (estrogenic) activity; details: relative to estradiol, Peters et al.; cited from earlier work
estrogen receptor [6] = biological target: T1, estrogen receptor; details: cited from earlier work
androgenic activity = details: published findings by Hilgar and Hummel; cited from earlier work
[7] = system: uterotropic (estrogenic) activity; assay: Uterotropic (estrogenic) activity in vivo
[8] = system: MCF-7 human breast cancer cells; assay: MCF-7 cell growth (cell number) with SGI compounds; format: cell-based; details: dose 10^−8 M; control 252,197 cells
Nb2 lymphoma cells = assay: DNA synthesis measured by thymidine incorporation; format: cell-based, rat
Source text: (§2) The mode of action of these piperidinediones is still not proven. […] At the same time, direct binding of such anti-estrogens to DNA appears to be weak. Taken as a whole, these findings support the possibility of a weak interaction of the piperidinediones with both DNA and the estrogen receptor, involving a receptor mediated insertion of the ligand into DNA.

DNA = assay: Binding of piperidinedione to DNA
Source text: as §2

Molecule: O=C1CCC(NC(=O)Cc2ccc(F)cc2)C(=O)N1 (stereo not drawn) [p-fluoro derivative]
- potency in tumor cell growth inhibition relative to A10 [1]: lack of increased potency

Molecule: p-hydroxy-3-phenylacetylamino-2,6-piperidinedione
- potency in tumor cell growth inhibition relative to A10 [1]: most potent compound
- potency in tumor cell growth inhibition relative to A10 ([1]; listed as p-OH-A10): as much as an order of magnitude more active than A10
- growth inhibition over concentration range (rat Nb2 lymphoma cells; Nb2 lymphoma cells, 10^−4 M to 10^−3 M): more active in Nb2 lymphoma cells than 3-phenylacetylamino-2,6 piperidinedione
- inhibition of prolactin stimulated growth (rat Nb2 lymphoma cells; rat Nb2 lymphoma cells): greatest activity
- inhibition of estrogen stimulated cell growth [2]: inhibited
- IC50 [2]: 7 µM
- growth inhibitory effect (YAK lymphoma cells): most active derivative
- binding for the estrogen receptor (estrogen receptor [3]): neither 3-phenylacetylamino-2,6-piperidinedione nor phydroxy-3-phenylacetylamino-2,6-piperidinedione exhibited appreciable binding
- dose response comparison of growth inhibition ([4]; 10^−5 to 10^−2 M): more active than the unsubstituted compound
- growth inhibitory effect ([4]; rank among analogs): most active analog

Molecule: C[C@@H]1Cc2cc(O)ccc2[C@@H]2[C@@H]1[C@@H]1CC[C@H](O)[C@@]1(C)C[C@@H]2O[N+](=O)[O-] [7α-methylestradiol-11β-nitrate ester, 3,11β, 17β-trihydroxy-7α-methylestra-1,3, 5 (10)-triene 11-nitrate ester]
- uterotropic activity [5]: considerably greater than that of estradiol
- binding to the estrogen receptor relative to estradiol (estrogen receptor [6]): less than 6 % of the binding of estradiol

Molecule: C[C@]12CCC(=O)C[C@@H]1CC[C@@H]1[C@@H]2CC[C@]2(C)[C@@H](O)CC[C@@H]12 [5α-dihydrotestosterone]
- androgenic activity (androgenic activity): highly active androgen

Molecule: C[C@]12CCC(=O)C[C@@H]1CC[C@@H]1[C@@H]2CC[C@]2(C)[C@@H](O)CC[C@@H]12 [5β-dihydrotestosterone]
- androgenic activity (androgenic activity): essentially inactive

Molecule: CC(=O)O[C@H]1C[C@]2(C)[C@@H](O)CC[C@H]2[C@@H]2CCc3cc(O)ccc3[C@H]21 [11β-acetoxyestradiol]
- estrogenic (uterotropic) activity in vivo [7]: more active than estradiol

Molecule: CC/C(=C(\c1ccccc1)c1ccc(OCCN(C)C)cc1)c1ccccc1 [tamoxifen citrate]
- number of MCF-7 cells [8]: 187,759 cells

Molecule: C[C@]12CC[C@H]3c4ccc(O)cc4CC[C@H]3[C@@H]1CC[C@@H]2O [9β-estradiol]
- estrogenic (uterotropic) activity in vivo [7]: inactive; also recorded: little uterotropic activity

Molecule: O=C1CCC(NC(=O)Cc2ccccc2)C(=O)N1 (stereo not drawn) [3-phenylacetylamino-2,6-piperidinedione]
- IC50 ([2]; Homo sapiens, MCF7, 216 h): 3000 µM
- inhibition of estrogen stimulated cell growth [2]: inhibited
- binding for the estrogen receptor (estrogen receptor [3]): neither 3-phenylacetylamino-2,6-piperidinedione nor phydroxy-3-phenylacetylamino-2,6-piperidinedione exhibited appreciable binding
- DNA synthesis measured by thymidine incorporation (Nb2 lymphoma cells): significantly inhibited
- covalent adducts with DNA (DNA): No covalent adducts
- binding to DNA (DNA; in comparison to classical intercalating drugs): weak and reversible
